According to ChEMBL document CHEMBL4312031, “Discovery of candesartan cilexetic as a novel neddylation inhibitor for suppressing tumor growth” (Eur J Med Chem, 2020):
Active and inactive are the calls of the source. The calls are words filed in the database; no cut-off is given here.

Columns and labels:
[1] = test system: HepG2; test: Antiproliferative activity against human HepG2 cells measured after 48 hrs by CCK8 assay; assay type: functional, cell-based; conditions: HepG2, 48 h
[2] = test system: Huh-7; test: Antiproliferative activity against human HuH7 cells measured after 48 hrs by CCK8 assay; assay type: functional, cell-based; conditions: Huh-7, 48 h
[3] = test system: MCF7; test: Antiproliferative activity against human MCF7 cells measured after 48 hrs by CCK8 assay; assay type: functional, cell-based; conditions: MCF7, 48 h
[4] = test system: PLC; test: Antiproliferative activity against human PLC cells measured after 48 hrs by CCK8 assay; assay type: functional, cell-based
[5] = test system: A549; test: Cell cycle arrest in human A549 cells assessed as accumulation at G1 phase at 25 uM measured after 24 hrs by propidium iodide/RNase A staining based flow cytometry analysis (reference value: 63.84 %); assay type: functional
[6] = test system: A549; test: Cell cycle arrest in human A549 cells assessed as accumulation at sub-G1 phase at 25 uM measured after 24 hrs by propidium iodide/RNase A staining based flow cytometry analysis (reference value: 0.89 %); assay type: functional
[7] = test system: A549; test: Cell cycle arrest in human A549 cells assessed as accumulation at G1 phase at 50 uM measured after 24 hrs by propidium iodide/RNase A staining based flow cytometry analysis (reference value: 63.84 %); assay type: functional
[8] = test system: A549; test: Cell cycle arrest in human A549 cells assessed as accumulation at sub-G1 phase at 50 uM measured after 24 hrs by propidium iodide/RNase A staining based flow cytometry analysis (reference value: 0.89 %); assay type: functional
[9] = test system: A549; test: Cell cycle arrest in human A549 cells assessed as accumulation at G2 phase at 75 uM measured after 24 hrs by propidium iodide/RNase A staining based flow cytometry analysis (reference value: 12.69 %); assay type: functional
[10] = test system: A549; test: Induction of apoptosis in human A549 cells assessed as late apoptotic cells at 25 uM measured after 48 hrs by AnnexinV-FITC/propidium iodide staining based FACS analysis (reference value: 1.71 %); assay type: functional
[11] = test system: A549; test: Induction of apoptosis in human A549 cells assessed as early apoptotic cells at 50 uM measured after 48 hrs by AnnexinV-FITC/propidium iodide staining based FACS analysis (reference value: 2.19 %); assay type: functional
[12] = test system: A549; test: Induction of apoptosis in human A549 cells assessed as late apoptotic cells at 75 uM measured after 48 hrs by AnnexinV-FITC/propidium iodide staining based FACS analysis (reference value: 1.71 %); assay type: functional
[13] = molecular target: T1, NEDD8/Cullin-1 (Homo sapiens) (UniProt Q13616+Q15843); test: Inhibition of Nedd8-cullin1 (unknown origin) assessed as decrease in cullin1-Nedd8 adduct formation at 25 to 50 uM preincubated for 10 mins followed by ATP addition and measured after 30 mins by immunoblot analysis; assay type: protein assay
T1 sequence (Q13616 whole entry, looked up): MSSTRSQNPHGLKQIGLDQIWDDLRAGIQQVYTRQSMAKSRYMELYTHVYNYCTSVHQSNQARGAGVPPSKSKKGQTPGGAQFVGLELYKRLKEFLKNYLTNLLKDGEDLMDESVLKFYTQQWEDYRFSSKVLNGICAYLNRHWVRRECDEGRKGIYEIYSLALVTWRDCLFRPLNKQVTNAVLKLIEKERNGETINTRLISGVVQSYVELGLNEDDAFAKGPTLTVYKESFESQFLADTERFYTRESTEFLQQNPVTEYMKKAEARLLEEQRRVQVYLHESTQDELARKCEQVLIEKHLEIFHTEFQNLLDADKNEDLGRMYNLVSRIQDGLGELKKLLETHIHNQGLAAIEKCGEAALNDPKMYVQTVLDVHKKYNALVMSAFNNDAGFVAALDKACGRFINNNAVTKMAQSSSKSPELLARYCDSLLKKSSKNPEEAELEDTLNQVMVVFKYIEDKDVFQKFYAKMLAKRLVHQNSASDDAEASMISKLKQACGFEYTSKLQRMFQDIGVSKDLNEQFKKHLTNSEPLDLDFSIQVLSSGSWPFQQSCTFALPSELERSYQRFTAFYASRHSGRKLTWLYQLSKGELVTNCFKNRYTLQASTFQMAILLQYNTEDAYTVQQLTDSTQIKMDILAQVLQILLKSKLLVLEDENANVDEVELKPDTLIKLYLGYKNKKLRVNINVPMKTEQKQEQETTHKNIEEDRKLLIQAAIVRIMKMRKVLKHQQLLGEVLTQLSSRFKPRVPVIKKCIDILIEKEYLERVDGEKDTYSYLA
T1 sequence (Q15843 whole entry, looked up): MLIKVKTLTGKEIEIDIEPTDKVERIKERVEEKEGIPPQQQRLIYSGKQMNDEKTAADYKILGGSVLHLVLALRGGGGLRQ

[14] = molecular target: T1, NEDD8/Cullin-1 (Homo sapiens); test: Competitive inhibition of Nedd8-cullin1 (unknown origin) adduct formation at 12.5 to 50 uM assessed as substrate Vmax by Lineweaver-Burk plot analysis; assay type: protein assay
[15] = molecular target: T1, NEDD8/Cullin-1 (Homo sapiens); test: Competitive inhibition of Nedd8-cullin1 (unknown origin) adduct formation at 12.5 to 50 uM assessed as increase in substrate Km by Lineweaver-Burk plot analysis; assay type: protein assay
[16] = test system: A549; test: Antiproliferative activity against human A549 cells measured after 48 hrs by CCK8 assay; assay type: functional, cell-based; conditions: A549, 48 h
[17] = molecular target: T2, NEDD8-conjugating enzyme Ubc12 (Homo sapiens) (UniProt P61081); test: Inhibition of UBC12 in human A549 cells assessed as decrease in Cullin1-Nedd8 adduct level at 50 uM measured after 6 to 12 hrs by Western blot analysis; assay type: cell-based
T2 sequence (whole entry): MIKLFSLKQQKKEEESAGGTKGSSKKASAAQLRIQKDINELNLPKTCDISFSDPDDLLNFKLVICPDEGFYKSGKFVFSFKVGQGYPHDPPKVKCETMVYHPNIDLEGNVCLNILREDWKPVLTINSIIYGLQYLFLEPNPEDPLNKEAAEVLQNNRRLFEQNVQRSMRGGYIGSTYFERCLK

[18] = molecular target: T2, NEDD8-conjugating enzyme Ubc12 (Homo sapiens); test: Inhibition of UBC12 in human A549 cells assessed as decrease in Cullin2-Nedd8 adduct level at 50 uM measured after 6 to 12 hrs by Western blot analysis; assay type: cell-based
[19] = molecular target: T2, NEDD8-conjugating enzyme Ubc12 (Homo sapiens); test: Inhibition of UBC12 in human A549 cells assessed as decrease in Cullin3-Nedd8 adduct level at 50 uM measured after 6 to 12 hrs by Western blot analysis; assay type: cell-based
[20] = molecular target: T2, NEDD8-conjugating enzyme Ubc12 (Homo sapiens); test: Inhibition of UBC12 in human A549 cells assessed as decrease in Cullin4a-Nedd8 adduct level at 50 uM measured after 6 to 12 hrs by Western blot analysis; assay type: cell-based
[21] = molecular target: T2, NEDD8-conjugating enzyme Ubc12 (Homo sapiens); test: Inhibition of UBC12 in human A549 cells assessed as decrease in Cullin1-Nedd8 adduct level measured after 6 to 12 hrs by Western blot analysis; assay type: cell-based
[22] = molecular target: T2, NEDD8-conjugating enzyme Ubc12 (Homo sapiens); test: Inhibition of UBC12 in human A549 cells assessed as decrease in Cullin2-Nedd8 adduct level measured after 6 to 12 hrs by Western blot analysis; assay type: cell-based
[23] = test system: A549; test: Effect on SUMO1 level in human A549 cells by Western blot analysis; assay type: functional, cell-based
[24] = test system: A549; test: Induction of apoptosis in human A549 cells assessed as increase in PARP cleavage at 50 to 100 uM by Western blot analysis; assay type: functional, cell-based
[25] = test system: A549; test: Inhibition of colony formation in human A549 cells measured after 10 days; assay type: functional, cell-based
[26] = test system: A549; test: Antitumor activity against human A549 cells xenografted in nude mouse assessed as decrease in tumor weight at 60 mg/kg, ip qd measured after 22 days; assay type: functional, organism-based
[27] = test system: A549; test: Antitumor activity against human A549 cells xenografted in nude mouse assessed as decrease in tumor size at 60 mg/kg, ip qd measured after 22 days; assay type: functional, organism-based
[28] = molecular target: NEDD8/NEDD8-conjugating enzyme Ubc12 (Homo sapiens) (UniProt P61081+Q15843); test: Competitive inhibition of Nedd8-Ubc12 (unknown origin) adduct formation assessed as decrease in Ubc12-Nedd8 adduct formation at 50 uM preincubated for 10 mins followed by ATP addition and measured after 30 mins by immunoblot analysis; assay type: protein-complex assay
[29] = test system: A549; test: Inhibition of cullin-RING ligase in human A549 cells assessed as accumulation of p27 level at 50 to 125 uM and measured after 6 to 12 hrs by Western blot analysis; assay type: cell-based
[30] = test system: A549; test: Effect on Ub-modified protein level in human A549 cells by Western blot analysis; assay type: functional, cell-based
[31] = test system: A549; test: Antitumor activity against human A549 cells xenografted in nude mouse assessed as decrease in tumor weight at 30 mg/kg, ip qd measured after 22 days; assay type: functional, organism-based
[32] = test system: A549; test: Antitumor activity against human A549 cells xenografted in nude mouse assessed as decrease in tumor size at 30 mg/kg, ip qd measured after 22 days; assay type: functional, organism-based

**Q.** For CCOc1nc2cccc(C(=O)OC(C)OC(=O)OC3CCCCC3)c2n1Cc1ccc(-c2ccccc2-c2nn[nH]n2)cc1 (configuration not stated) [CANDESARTAN CILEXETIL], which IC50 [1] is on record?
**A.** > 100 µM

**Q.** And the IC50 [2]?
**A.** > 100 µM

**Q.** And the IC50 [3]?
**A.** > 100 µM

**Q.** And the IC50 [4]?
**A.** 60.2 µM

**Q.** And the Activity [5]?
**A.** 63.02%

**Q.** And the Activity [6]?
**A.** 9.54%

**Q.** What about the Activity [7] of the same molecule?
**A.** 60.18%

**Q.** And the Activity [8]?
**A.** 20.35%

**Q.** What about the Activity [9] of the same molecule?
**A.** 8.15%

**Q.** What about the Activity [10] of the same molecule?
**A.** 5.5%

**Q.** And the Activity [11]?
**A.** 11.77%

**Q.** And the Activity [12]?
**A.** 14.26%

**Q.** And the inhibition [13]?
**A.** Active

**Q.** What about the inhibition [14] of the same molecule?
**A.** Active

**Q.** And the inhibition [15]?
**A.** Active

**Q.** What about the IC50 [16] of the same molecule?
**A.** 63.9 µM

**Q.** And the inhibition [17]?
**A.** Active

**Q.** And the inhibition [18]?
**A.** Active

**Q.** And the inhibition [19]?
**A.** Active

**Q.** What about the inhibition [20] of the same molecule?
**A.** Active

**Q.** And the inhibition [21]?
**A.** Dose-dependent effect

**Q.** What about the inhibition [22] of the same molecule?
**A.** Dose-dependent effect

**Q.** And the Activity [23]?
**A.** inactive

**Q.** What about the Activity [24] of the same molecule?
**A.** Active

**Q.** And the inhibition [25]?
**A.** Dose-dependent effect

**Q.** What about the Activity [26] of the same molecule?
**A.** Active

**Q.** What about the Activity [27] of the same molecule?
**A.** Active

**Q.** What about the inhibition [28] of the same molecule?
**A.** Active

**Q.** What about the inhibition [29] of the same molecule?
**A.** Active

**Q.** And the Activity [30]?
**A.** Active

**Q.** And the Activity [31]?
**A.** Active

**Q.** And the Activity [32]?
**A.** Active
